Assay results as given in patent US20130345312A1, “TREATMENT OF MITOCHONDRIAL DISEASES WITH NAPHTHOQUINONES” (priority 2010, published 2013).

Tests used:
Format in all cases: cell-based
[1] = system: FRDA fibroblasts (Coriell GM04078); experiment: Rescue of BSO-stressed human dermal fibroblasts from Friedreich's ataxia patients (Calcein AM viability); settings: FRDA fibroblasts stressed with 1 mM BSO, 48 h, Calcein AM fluorescence, read-out: protection against FRDA, EC50
Description: Test samples and solvent controls were tested for their ability to rescue FRDA fibroblasts stressed by addition of L-buthionine-(S,R)-sulfoximine (BSO), as described in Jauslin et al., Hum. Mol. Genet. 11(24):3055 (2002), Jauslin et al., FASEB J. 17:1972-4 (2003), and International Patent Application WO 2004/003565. […] This specific BSO-mediated cell death can be prevented by administration of antioxidants or molecules involved in the antioxidant pathway, such as alpha-tocopherol, selenium, or small molecule glutathione peroxidase mimetics. However, antioxidants differ in their potency, i.e. the concentration at which they are able to rescue BSO-stressed FRDA fibroblasts. MEM (a medium enriched in amino acids and vitamins, catalog no. 1-31F24-I) and Medium 199 (M199, catalog no. 1-21F22-I) with Earle's Balanced Salts, without phenol red, were purchased from Bioconcept. Fetal Calf Serum was obtained from PAA Laboratories. Basic fibroblast growth factor and epidermal growth factor were purchased from PeproTech. Penicillin-streptomycin-glutamine mix, L-buthionine (S,R)-sulfoximine, and insulin from bovine pancreas were purchased from Sigma. Calcein AM was purchased from Molecular Probes. Cell culture medium was made by combining 125 ml M199 EBS, 50 ml Fetal Calf Serum, 100 U/ml penicillin, 100 μg/ml streptomycin, 2 mM glutamine, 10 μg/ml insulin, 10 ng/ml EGF, and 10 ng/ml bFGF; MEM EBS was added to make the volume up to 500 ml. A 10 mM BSO solution was prepared by dissolving 444 mg BSO in 200 ml of medium with subsequent filter-sterilization. During the course of the experiments, this solution was stored at +4° C. The cells were obtained from the Coriell Cell Repositories (Camden, N.J.; repository number GM04078) and grown in 10 cm tissue culture plates. Every third day, they were split at a 1:3 ratio. The test samples were supplied in 1.5 ml glass vials. The compounds were diluted with DMSO, ethanol or PBS to result in a 5 mM stock solution. Once dissolved, they were stored at −20° C. Test samples were screened according to the following protocol: A culture with FRDA fibroblasts was started from a 1 ml vial with approximately 500,000 cells stored in liquid nitrogen. Cells were propagated in 10 cm cell culture dishes by splitting every third day in a ratio of 1:3 until nine plates were available. Once confluent, fibroblasts were harvested. For 54 micro titer plates (96 well-MTP) a total of 14.3 million cells (passage eight) were re-suspended in 480 ml medium, corresponding to 100 μL medium with 3,000 cells/well. The remaining cells were distributed in 10 cm cell culture plates (500,000 cells/plate) for propagation. The plates were incubated overnight at 37° C. in a atmosphere with 95% humidity and 5% CO2 to allow attachment of the cells to the culture plate. MTP medium (243 μL) was added to a well of the microtiter plate. The test compounds were unfrozen and 7.5 μL of a 5 mM stock solution was dissolved in the well containing 243 μL medium, resulting in a 150 μM master solution. Serial dilutions from the master solution were made. The period between the single dilution steps was kept as short as possible (generally less than 1 second). Plates were kept overnight in the cell culture incubator. The next day, 10 μL of a 10 mM BSO solution were added to the wells, resulting in a 1 mM final BSO concentration. Forty-eight hours later, three plates were examined under a phase-contrast microscope to verify that the cells in the 0% control (wells E1-H1) were clearly dead. The medium from all plates was discarded, and the remaining liquid was removed by gently tapping the plate inversed onto a paper towel. 100 μl of PBS containing 1.2 μM Calcein AM were then added to each well. The plates were incubated for 50-70 minutes at room temperature. After that time the PBS was discarded, the plate gently tapped on a paper towel and fluorescence (excitation/emission wavelengths of 485 nm and 525 nm, respectively) was read on a Gemini fluorescence reader. […]

[2] = system: Huntington's cells (Coriell GM 04281); experiment: Rescue of fibroblasts from Huntington's patients from oxidative stress (screen as in Example A); settings: Fibroblast, human dermal fibroblasts from Huntington's patients, read-out: protection against Huntington's, EC50
Description: Compounds of the invention were tested using the screen as described in Example A, but substituting FRDA cells with Huntington's cells obtained from the Coriell Cell Repositories (Camden, N.J.; repository number GM 04281). The compounds were tested for their ability to rescue human dermal fibroblasts from Huntington's patients from oxidative stress.

[3] = system: Leber's Hereditary Optic Neuropathy (LHON) cells (Coriell GM03858); experiment: Rescue of fibroblasts from Leber's Hereditary Optic Neuropathy patients from oxidative stress (screen as in Example A); settings: Fibroblast, human dermal fibroblasts from LHON patients, read-out: protection against LHON, EC50
Description: Compounds of the invention were screened as described in Example A, but substituting FRDA cells with Leber's Hereditary Optic Neuropathy (LHON) cells obtained from the Coriell Cell Repositories (Camden, N.J.; repository number GM03858). The compounds were tested for their ability to rescue human dermal fibroblasts from LHON patients from oxidative stress.

[4] = system: cells obtained from CoQ10 deficient patients harboring a CoQ2 mutation; experiment: Rescue of fibroblasts from CoQ10 deficient patients from oxidative stress (screen similar to Example A); settings: Fibroblast, human dermal fibroblasts from CoQ10 deficient patients (CoQ2 mutation), read-out: protection against CoQ10 deficiency, EC50
Description: Compounds of the invention were tested using a screen similar to the one described in Example A, but substituting FRDA cells with cells obtained from CoQ10 deficient patients harboring a CoQ2 mutation. The compounds were tested for their ability to rescue human dermal fibroblasts from CoQ10 deficient patients from oxidative stress.

[5] = system: Parkinson's disease (PD) cells (Coriell AG20439); experiment: Rescue of fibroblasts from Parkinson's disease patients from oxidative stress (screen as in Example A); settings: Fibroblast, human dermal fibroblasts from Parkinson's disease patients, read-out: protection against PD, EC50
Description: Compounds of the invention were screened as described in Example A, but substituting FRDA cells with Parkinson's disease (PD) cells obtained from the Coriell Cell Repositories (Camden, N.J.; repository number AG20439). The compounds were tested for their ability to rescue human dermal fibroblasts from Parkinson's disease patients from oxidative stress.

**Q.** Which EC50 [1] does the source give for `COC1=C(OC)C(=O)c2ccccc2C1=O` [2,3-dimethoxynaphthalene-1,4-dione] here?
**A.** Its EC50 is under 100 nM.

**Q.** What about the EC50 [2] of the same compound?
**A.** Its EC50 is under 150 nM.

**Q.** And the EC50 [3]?
**A.** Its EC50 is under 150 nM.

**Q.** And the EC50 [4]?
**A.** Its EC50 is under 100 nM.

**Q.** For `CC1=C(C)C(=O)c2ccccc2C1=O` [2,3-dimethylnaphthalene-1,4-dione], which EC50 [1] is on record?
**A.** Its EC50 is under 100 nM.

**Q.** And the EC50 [2]?
**A.** Its EC50 is under 150 nM.

**Q.** What about the EC50 [3] of the same compound?
**A.** Its EC50 is under 150 nM.

**Q.** What about the EC50 [5] of the same compound?
**A.** The EC50 was under 200 nM.

**Q.** And the EC50 [4]?
**A.** Its EC50 is under 100 nM.

**Q.** How did the EC50 [1] turn out when `CCCCC1=C(C)C(=O)c2ccccc2C1=O` [2-butyl-3-methylnaphthalene-1,4-dione] was run?
**A.** The EC50 was under 100 nM.

**Q.** What about the EC50 [2] of the same compound?
**A.** Its EC50 is under 150 nM.

**Q.** What about the EC50 [3] of the same compound?
**A.** Its EC50 is under 150 nM.

**Q.** And the EC50 [5]?
**A.** The EC50 was under 200 nM.

**Q.** What about the EC50 [4] of the same compound?
**A.** Its EC50 is under 100 nM.

**Q.** Which EC50 [1] does the source give for `CCCCCCC1=C(C)C(=O)c2ccccc2C1=O` [2-hexyl-3-methylnaphthalene-1,4-dione] here?
**A.** Its EC50 is under 100 nM.

**Q.** And the EC50 [2]?
**A.** Its EC50 is under 150 nM.

**Q.** What about the EC50 [3] of the same compound?
**A.** Its EC50 is under 150 nM.

**Q.** What about the EC50 [5] of the same compound?
**A.** The EC50 was under 200 nM.

**Q.** What about the EC50 [4] of the same compound?
**A.** The EC50 was under 100 nM.

**Q.** Which EC50 [1] does the source give for `COC1=CC(=O)c2ccccc2C1=O` [2-methoxynaphthalene-1,4-dione] here?
**A.** The EC50 was under 100 nM.

**Q.** And the EC50 [2]?
**A.** The EC50 was under 150 nM.

**Q.** And the EC50 [3]?
**A.** The EC50 was under 150 nM.

**Q.** And the EC50 [4]?
**A.** Its EC50 is under 100 nM.

**Q.** How did the EC50 [1] turn out when `O=C1C=CC(=O)c2ccccc21` [naphthalene-1,4-dione] was run?
**A.** The EC50 was under 100 nM.

**Q.** What about the EC50 [2] of the same compound?
**A.** Its EC50 is under 150 nM.

**Q.** And the EC50 [3]?
**A.** Its EC50 is under 150 nM.

**Q.** What about the EC50 [5] of the same compound?
**A.** The EC50 was under 200 nM.
